In ChEMBL document CHEMBL1667816, “Preparation and in vitro screening of symmetrical bis-isoquinolinium cholinesterase inhibitors bearing various connecting linkage--implications for early Myasthenia gravis treatment” (Eur J Med Chem, 2011) one finds IC50 and Ki data, which are given here for 20 compounds.

One may read the IC50 as the concentration needed to halve the response being measured. One may read the Ki as a dissociation constant, usually derived from enzyme kinetics or from competition with a known ligand.

In one assay the target is Cholinesterase (Homo sapiens, UniProt P06276). The experiment in a line: Inhibition of human plasmatic BChE by Lineweaver-Burk plot analysis. The format is cell-free, Plasma.
Cholinesterase, sequence (P06276 whole entry): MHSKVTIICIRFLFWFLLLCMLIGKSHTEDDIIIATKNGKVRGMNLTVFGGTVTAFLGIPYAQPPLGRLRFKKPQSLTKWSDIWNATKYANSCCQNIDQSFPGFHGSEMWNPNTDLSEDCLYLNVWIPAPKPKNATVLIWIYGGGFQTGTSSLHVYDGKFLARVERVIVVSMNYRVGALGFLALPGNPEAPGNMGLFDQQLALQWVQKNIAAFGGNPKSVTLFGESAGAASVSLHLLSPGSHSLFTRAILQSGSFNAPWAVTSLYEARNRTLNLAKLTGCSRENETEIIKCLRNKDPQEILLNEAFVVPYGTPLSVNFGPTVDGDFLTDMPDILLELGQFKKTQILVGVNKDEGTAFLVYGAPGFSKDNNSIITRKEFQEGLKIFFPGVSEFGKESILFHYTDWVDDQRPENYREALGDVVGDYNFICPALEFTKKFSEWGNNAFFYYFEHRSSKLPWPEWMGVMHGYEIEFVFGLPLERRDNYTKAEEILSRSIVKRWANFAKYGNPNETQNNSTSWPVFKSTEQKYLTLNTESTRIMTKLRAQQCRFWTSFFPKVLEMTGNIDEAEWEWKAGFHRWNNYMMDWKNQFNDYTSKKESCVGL
The target of assay [1] is T1, Acetylcholinesterase (Homo sapiens, UniProt P22303). The experiment in a line: Inhibition of human recombinant AChE by Lineweaver-Burk plot analysis.
T1 sequence (P22303 whole entry): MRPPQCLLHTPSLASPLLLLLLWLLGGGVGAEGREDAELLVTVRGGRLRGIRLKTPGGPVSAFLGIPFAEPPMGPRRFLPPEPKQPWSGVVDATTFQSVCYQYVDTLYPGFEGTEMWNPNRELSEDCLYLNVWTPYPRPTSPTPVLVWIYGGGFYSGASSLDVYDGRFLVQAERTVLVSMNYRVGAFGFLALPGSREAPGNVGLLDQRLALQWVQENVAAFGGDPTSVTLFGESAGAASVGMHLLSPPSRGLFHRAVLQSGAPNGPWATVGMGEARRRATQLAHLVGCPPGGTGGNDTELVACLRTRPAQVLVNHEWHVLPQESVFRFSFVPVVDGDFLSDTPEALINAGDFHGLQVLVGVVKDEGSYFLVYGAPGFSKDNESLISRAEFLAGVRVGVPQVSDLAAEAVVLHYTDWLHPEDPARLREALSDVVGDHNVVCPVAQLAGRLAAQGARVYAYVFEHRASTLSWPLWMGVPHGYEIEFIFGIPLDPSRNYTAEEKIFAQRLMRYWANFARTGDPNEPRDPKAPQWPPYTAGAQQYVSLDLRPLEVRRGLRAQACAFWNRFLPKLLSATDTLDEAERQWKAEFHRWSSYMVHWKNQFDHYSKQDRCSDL
The target of assay [2] is T1, Acetylcholinesterase.
Description: Dissociation constant for enzyme-inhibitor complex of human recombinant AChE by Lineweaver-Burk plot analysis
Assay [3] addresses T1, Acetylcholinesterase. This is another data set of the same source.
Description: Dissociation constant for enzyme-inhibitor-substrate complex of human recombinant AChE by Lineweaver-Burk plot analysis

With `c1ccc2c[n+](CCCCCCCCC[n+]3ccc4ccccc4c3)ccc2c1`, the IC50 against Cholinesterase worked out at 0.6 µM; at Acetylcholinesterase [1], 0.04 µM.
The like results for `c1ccc2c[n+](CCOCC[n+]3ccc4ccccc4c3)ccc2c1` were, in that order, 51 µM and 1310 µM.
The like results for `c1ccc2c[n+](CCCCC[n+]3ccc4ccccc4c3)ccc2c1` were, in that order, 0.7 µM and 13 µM.
For `c1ccc2c[n+](CCC[n+]3ccc4ccccc4c3)ccc2c1`, the half-maximal inhibitory concentration (IC50) against Cholinesterase was determined as 2600 µM; on Acetylcholinesterase [1] it was 446 µM.
In the case of `c1ccc2c[n+](CCCCCC[n+]3ccc4ccccc4c3)ccc2c1`, the IC50 stood at 2 µM on Cholinesterase and 0.3 µM at Acetylcholinesterase [1].
For the compound `c1ccc2c[n+](CCCCCCCCCCCC[n+]3ccc4ccccc4c3)ccc2c1`, the half-maximal inhibitory concentration (IC50) on Cholinesterase worked out at 0.1 µM; on Acetylcholinesterase [1], 137 µM.
The like results for `c1ccc2c[n+](C[n+]3ccc4ccccc4c3)ccc2c1` were, in that order, 1400 µM and 654 µM.
Regarding `c1ccc2c[n+](CCCC[n+]3ccc4ccccc4c3)ccc2c1`, the concentration for half-maximal inhibition (IC50) against Cholinesterase came out at 40 µM; on Acetylcholinesterase [1] it was 36 µM.
`C(=C/C[n+]1ccc2ccccc2c1)/C[n+]1ccc2ccccc2c1`: the results for the IC50 on Cholinesterase and on Acetylcholinesterase [1] were 25 µM and 17 µM, respectively.
The like results for `c1ccc(C[n+]2ccc3ccccc3c2)c(C[n+]2ccc3ccccc3c2)c1` were, in that order, 0.6 µM and 250 µM.
Consider `c1ccc2c[n+](COC[n+]3ccc4ccccc4c3)ccc2c1`, for which the IC50 was determined as 154 µM on Cholinesterase and 2 µM on Acetylcholinesterase [1].
Regarding `c1ccc2c[n+](Cc3ccc4ccc(C[n+]5ccc6ccccc6c5)cc4c3)ccc2c1`, the half-maximal inhibitory concentration (IC50) against Cholinesterase was 4 µM; at Acetylcholinesterase [1], 0.3 µM. Also, the Ki at Acetylcholinesterase [2] was determined as 1.25 µM; on Acetylcholinesterase [3], 0.75 µM.
For `c1cc(C[n+]2ccc3ccccc3c2)cc(C[n+]2ccc3ccccc3c2)c1`, the IC50 was 1 µM against Cholinesterase and 8 µM on Acetylcholinesterase [1].
Compound `C[N+](C)(CCNC(=O)C(=O)NCC[N+](C)(C)Cc1ccccc1Cl)Cc1ccccc1Cl` [AMBENONIUM DICHLORIDE] yielded an IC50 against Cholinesterase of 6.82 µM.
As to `C(=C\C[n+]1ccc2ccccc2c1)/C[n+]1ccc2ccccc2c1`, the results for the IC50 against Cholinesterase and on Acetylcholinesterase [1] were 64 µM and 7 µM, respectively.
The compound `CC[N+](C)(C)c1cccc(O)c1` [EDROPHONIUM CHLORIDE] came in with an IC50 against Cholinesterase of 1370 µM.
In the case of `c1ccc2c[n+](CCCCCCC[n+]3ccc4ccccc4c3)ccc2c1`, the results for the IC50 on Cholinesterase and at Acetylcholinesterase [1] were 3 µM and 0.5 µM, respectively.
`c1ccc2c[n+](CCCCCCCCCC[n+]3ccc4ccccc4c3)ccc2c1`: the IC50 against Cholinesterase was 1.6 µM; at Acetylcholinesterase [1], 0.05 µM.
The like results for `c1ccc2c[n+](Cc3ccc(C[n+]4ccc5ccccc5c4)cc3)ccc2c1` were, in that order, 840 µM and 12 µM.
On to `c1ccc2c[n+](CCCCCCCCCCC[n+]3ccc4ccccc4c3)ccc2c1`, for which the half-inhibitory concentration (IC50) against Cholinesterase stood at 9 µM; on Acetylcholinesterase [1], 0.1 µM.
